The values below come from US8404708B2, “Dual NK1/NK3 receptor antagonists” (Hoffmann-La Roche Inc., priority 2004, dated 2013).

For one assay, the target named is human NK1 receptor (Homo sapiens, UniProt P25103). The assay is described as follows: NK1 receptor binding, [3H]substance P displacement, CHO cell membranes. Conditions: first value of the cell pKi NK1/NK3; human NK1 receptor, [3H]substance P.
For assay [1], the target named is T1, Recombinant human NK3 (hNK3) receptor (Homo sapiens, UniProt P29371).
T1 construct: expressed in transfected cells
T1 sequence (P29371 1-465): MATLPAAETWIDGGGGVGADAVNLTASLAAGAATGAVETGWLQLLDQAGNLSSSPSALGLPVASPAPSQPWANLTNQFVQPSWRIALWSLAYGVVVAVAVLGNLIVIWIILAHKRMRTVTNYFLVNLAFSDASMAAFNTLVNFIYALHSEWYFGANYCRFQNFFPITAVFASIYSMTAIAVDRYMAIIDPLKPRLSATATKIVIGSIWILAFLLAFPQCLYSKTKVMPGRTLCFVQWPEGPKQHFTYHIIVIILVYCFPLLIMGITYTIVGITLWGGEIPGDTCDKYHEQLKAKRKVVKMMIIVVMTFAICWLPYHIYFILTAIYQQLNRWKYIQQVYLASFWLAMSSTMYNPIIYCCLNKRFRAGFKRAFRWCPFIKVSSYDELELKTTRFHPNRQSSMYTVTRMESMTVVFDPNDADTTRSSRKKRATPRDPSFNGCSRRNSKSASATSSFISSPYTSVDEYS
The assay is described as follows: NK3 receptor binding, [3H]SR142801 displacement, membrane preparations. To be noted: second value of the cell pKi NK1/NK3; hNK3 receptor, [3H]SR142801. The procedure: Non specific binding was determined using 10 μM SB222200. Assay buffer consisted of Tris-HCl (50 mM, pH 7.4), BSA (0.1%), MnCl2 (4 mM) and phosphoramidon (1 μM). Membrane preparations of hNK3 receptors (approximately 2.5 μg/well in a 96 well plate) were used to initiate the incubation for 90 min at room temperature. This assay was terminated by rapid filtration under vacuum through GF/C filters, presoaked for 90 min with PEI (0.3%), with 3×0.5 ml washes of ice-cold Tris buffer (50 mM, pH 7.4) containing 0.1% BSA. The radioactivity retained on the filters was measured by scintillation counting. All assays were performed in duplicate in at least two separate experiments.

human NK1 receptor, sequence (P25103 whole entry): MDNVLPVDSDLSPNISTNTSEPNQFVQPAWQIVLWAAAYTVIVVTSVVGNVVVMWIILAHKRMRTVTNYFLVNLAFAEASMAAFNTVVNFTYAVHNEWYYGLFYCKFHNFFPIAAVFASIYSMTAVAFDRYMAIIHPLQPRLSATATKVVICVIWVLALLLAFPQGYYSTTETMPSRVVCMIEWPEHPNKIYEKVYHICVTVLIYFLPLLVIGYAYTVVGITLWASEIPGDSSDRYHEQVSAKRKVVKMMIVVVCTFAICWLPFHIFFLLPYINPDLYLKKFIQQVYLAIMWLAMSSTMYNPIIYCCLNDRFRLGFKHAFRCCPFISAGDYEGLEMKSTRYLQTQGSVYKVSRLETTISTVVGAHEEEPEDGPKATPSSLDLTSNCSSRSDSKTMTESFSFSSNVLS

Usually Ki stands for the equilibrium dissociation constant of an inhibitor or competing ligand from its target. With `CN(C(=O)C(C)(C)c1cc(C(F)(F)F)cc(C(F)(F)F)c1)c1cnc(N2CCC[C@@H]2CO)cc1-c1ccc(Cl)c(Cl)c1` [Example 95, (R)-2-(3,5-Bis-trifluoromethyl-phenyl)-N-[4-(3,4-dichloro-phenyl)-6-(2-hydroxymethyl-pyrrolidin-1-yl)-pyridin-3-yl]-N-methyl-isobutyramide], the Ki on human NK1 receptor is 3.8 nM; in assay [1] it was 9.33 nM.
In the same order, the values of `Cc1cc(F)ccc1-c1cc(N2CCC[C@H]2C(C)(C)O)ncc1N(C)C(=O)C(C)(C)c1cc(C(F)(F)F)cc(C(F)(F)F)c1` [Example 159, (S)-2-(3,5-Bis-trifluoromethyl-phenyl)-N-{4-(4-fluoro-2-methyl-phenyl)-6-[2-(1-hydroxy-1-methyl-ethyl)-pyrrolidin-1-yl]-pyridin-3-yl}-N-methyl-isobutyramide] are 1.78 nM and 9.55 nM.
As for `C[C@@H](O)CNc1cc(-c2ccccc2Cl)c(N(C)C(=O)C(C)(C)c2cc(C(F)(F)F)cc(C(F)(F)F)c2)cn1` [Example 73, (R)-2-(3,5-Bis-trifluoromethyl-phenyl)-N-[4-(2-chloro-phenyl)-6-(2-hydroxy-propylamino)-pyridin-3-yl]-N-methyl-isobutyramide], the Ki is 0.871 nM on human NK1 receptor and 7.41 nM in assay [1].
The matching figures for `Cc1ccccc1-c1cc(N(C)CCO)ncc1N(C)C(=O)C(C)(C)c1cc(C(F)(F)F)cc(C(F)(F)F)c1` [Example 117, 2-(3,5-Bis-trifluoromethyl-phenyl)-N-{6-[(2-hydroxy-ethyl)-methyl-amino]-4-o-tolyl-pyridin-3-yl}-N-methyl-isobutyramide]: 2.09 nM and 3.09 nM.
In the same order, the values of `CN(C(=O)C(C)(C)c1cc(C(F)(F)F)cc(C(F)(F)F)c1)c1cnc(N2C[C@H](O)C[C@H]2CO)cc1-c1cccc(Br)c1` [Example 205, (2S,4R)-2-(3,5-Bis-trifluoromethyl-phenyl)-N-[4-(3-bromo-phenyl)-6-(4-hydroxy-2-hydroxymethyl-pyrrolidin-1-yl)-pyridin-3-yl]-N-methyl-isobutyramide] are 1.95 nM and 8.51 nM.
In the same order, the values of `CN(C(=O)C(C)(C)c1cc(C(F)(F)F)cc(C(F)(F)F)c1)c1cnc(N2C[C@H](O)C[C@H]2CO)cc1-c1ccc(Cl)cc1` [Example 203, (2S,4R)-2-(3,5-Bis-trifluoromethyl-phenyl)-N-[4-(4-chloro-phenyl)-6-(4-hydroxy-2-hydroxymethyl-pyrrolidin-1-yl)-pyridin-3-yl]-N-methyl-isobutyramide] are 2.04 nM and 10.5 nM.
Take `CN(C(=O)C(C)(C)c1cc(C(F)(F)F)cc(C(F)(F)F)c1)c1cnc(N2C[C@@H](O)[C@H](O)C2)cc1-c1ccccc1Cl` [Example 49, (3R,4R)-2-(3,5-Bis-trifluoromethyl-phenyl)-N-[4-(2-chloro-phenyl)-6-(3,4-dihydroxy-pyrrolidin-1-yl)-pyridin-3-yl]-N-methyl-isobutyramide]: the Ki at human NK1 receptor is 0.479 nM; in assay [1], 14.8 nM.
In the case of `Cc1cc(C)cc(C(C)(C)C(=O)N(C)c2cnc(N3CCC[C@H]3CO)cc2-c2ccc(F)cc2C)c1` [Example 32, (S)-(3,5-Dimethyl-phenyl)-N-[4-(4-fluoro-2-methyl-phenyl)-6-(2-hydroxymethyl-pyrrolidin-1-yl)-pyridin-3-yl]-N-methyl-isobutyramide], the “pKi NK1” value on human NK1 receptor stood at 8.51. Further, in assay [1], the “pKi NK3” value is on record as 8.52.
For the compound `Cc1cc(F)ccc1-c1cc(N2CCC[C@H]2CO)ncc1N(C)C(=O)C(C)(C)c1cc(C(F)(F)F)cc(C(F)(F)F)c1` [Example 165, (S)-2-(3,5-Bis-trifluoromethyl-phenyl)-N-[4-(4-fluoro-2-methyl-phenyl)-6-(2-hydroxymethyl-pyrrolidin-1-yl)-pyridin-3-yl]-N-methyl-isobutyramide], the inhibition constant Ki is 2.09 nM at human NK1 receptor and 1.1 nM in assay [1].
